Here are results for 2 substances from patent publication US10016343B2, “Solid stick antiperspirant compositions” (The Procter & Gamble Company, priority 2013, dated 2018).

A short description of the data set: Hygroscopicity (equilibrium moisture pick up) of antiperspirant active. The data set is classed as physicochemical. Conditions: 86% RH, 20° C., 5 days. As to the method:
One way to evaluate the hygroscopic nature of an antiperspirant active is to determine the equilibrium moisture pick up of the active after 5 days in a controlled relative humidity environment. Specific humidity chambers can be created placing saturated salt solutions in desiccators at a specific temperature. Different salts are used to create different humidities, for example potassium chloride can be used to make an 86% relative humidity (RH) environment at 20° C. In general there is an increase in moisture pick up as humidity is increased for the antiperspirant actives shown, however there are clear differences in slope and amount of moisture pick up at high humidity. Materials with higher slope and larger increases at high humidity (i.e. 86% RH) are considered to be more hygroscopic. The aluminum zirconium trichlorohydrate active (metal to chloride ratio=1.6) from Inventive Example 1 is the least hygroscopic (28% moisture pick up at 86% RH) with the aluminum zirconium tetrachlorohydrate active (metal to chloride ratio=1.2) being substantially more hygroscopic (40% moisture pick up at 86% RH). […] This may explain the substantial difference observed in the amount of sweat measured between Inventive Examples 1 and 2. […]

Turning to aluminum zirconium tetrachlorohydrate, the “moisture pick up (hygroscopicity)” value came out at 40%.
With aluminum zirconium trichlorohydrate the figure was 28%.
